Source: patent US12359176B2, “Engineered cells for production of indole-derivatives” (priority 2019, dated 2025)

Assays:
Type in all cases: cell-based
[1] = system: E. coli Keio strains (single gene deleted strains); assay: Growth Profiler growth test of transporter knockout (Keio) strains in 4 g/L melatonin; conditions: 4% ethanol, M9+0.2% glucose, vs BW25113 control strain
Description: (§1) The E. coli Keio strains (single gene deleted strains) were inoculated into 400 μl of M9+0.2% glucose media supplemented with kanamycin (50 μg/ml) in 96 deep well-plate picking the single colonies in LB-agar plates. Then, the plate was incubated at 30° C. with 300 rpm overnight (incubated for 18-24 h). The wild type strain E. coli BW25113 was used as a control. The following day, the saturated pre-cultures were diluted 100 fold into 300 μl of M9+0.2% glucose media (and antibiotics as required) supplemented with 4.4% of ethanol or 4.4% of ethanol and 4.4 g/L of melatonin so that the resulting final concentration would be 4% of ethanol and 4 g/L of melatonin in 96 well MTP plate. In case of the RBS library of yhjV, screening was performed at 5 g/L of melatonin instead of 4 g/L. Then, the culture plates were incubated in Growth Profiler (Enzyscreen, Heemstede, Netherland) at 30° C. and 250 RPM for 48 h with constant monitoring of the growth by taking picture in every 20 minutes interval. Using the GP software (GP960Viewer version 1.0.0.4, Enzyscreen, Heemstede, Netherland), the pictures data was converted into digital OD600 nm values and the growth curves were compared.
To identify any melatonin-specific native transporters in E. coli, an E. coli knockout library of 430 strains was screened, testing cell growth in the presence of 4 g/L (or 5 g/L) melatonin using the Growth Profiler. In such a screen, improved growth parameters (especially higher growth rate and/or lower lag time) compared to wild-type strain can be expected in case an importer is knocked-out, whereas decreased growth parameters can be expected in case an exporter is knocked-out (FIG. 3).
The growth curves of the five selected transporter candidate deletion strains (target candidate knocked-out Keio strains) were accessed after running growth profiler experiments as mentioned above.

E. coli = assay: Growth of E. coli in the presence of melatonin
Description: FIG. 2. High-concentration of melatonin decreased cell growth of E. coli. Melatonin stock-solution was made by dissolving melatonin into 70% ethanol (ETOH). The growth medium was M9 supplemented with 0.2% glucose and 2 to 7 g/L melatonin. […] The ordinate scale reflects optical density.
as §1
In order to elucidate whether melatonin production at high titers is toxic to E. coli, we tested the growth of E. coli strain in the presence of different concentrations of melatonin. Melatonin was externally added into M9 medium supplemented with 0.2% glucose and the growth curves were monitored. […] Compared to the control, the biomass yield decreased ˜30% at 2 g/L melatonin, and further decreased about 30% at 7 g/l melatonin.

[2] = system: E. coli YhjV knockout (HMP3406_YhjV KO); assay: Growth test of yhjV knockout strain in tryptophan; conditions: 1 mM tryptophan, M9 with 0.2% glucose, 30° C., 48 h
Description: This Example describes testing the influence of YhjV on the uptake of amino acids. The growth test was performed using M9 medium supplemented with 0.2% glucose and 1 mM tryptophan, as well as appropriate antibiotics (100 mg/L ampicillin or 50 mg/L kanamycin). The growth curves were monitored with Growth Profiler (Enzyscreen, Heemstede, Netherland) at 30° C. and 250 RPM for 48 h.
We first tested how YhjV transporter affects the growth of E. coli tryptophan. We followed the growth curves of E. coli wild type BW25113 (HMP0_wt), YhjV knockout (HMP3406_YhjV KO) and YhjV overexpression (HMP3405_YhjV O. E., made by transforming pHM635 into HMP0) in M9 medium containing 0.2% glucose supplemented with 1 mM tryptophan.

COc1ccc2[nH]cc(CCNC(C)=O)c2c1 [melatonin]
growth of acrB deletion strain [1]: no growth at all | growth of argO deletion strain [1]: reduced growth rates | growth of garP deletion strain [1]: longer lag time and reduced growth rate | growth of lysP deletion strain [1]: reduced growth rates | growth of yhjV deletion strain [1]: longer lag time and reduced growth rate | biomass yield decrease compared to the control (E. coli; 2 g/L melatonin, M9 medium with 0.2% glucose, control contains 4% ETOH): about 30% | further biomass yield decrease (E. coli; 7 g/l melatonin, M9 medium with 0.2% glucose, control contains 4% ETOH): about 30% | effect on E. coli growth (E. coli; high concentrations of melatonin (2 to 7 g/L), M9 with 0.2% glucose): inhibited E. coli growth

N[C@@H](Cc1c[nH]c2ccccc12)C(=O)O [tryptophan, L-tryptophan]
growth of YhjV knockout compared to the wild type [2]: much lower biomass yield
